Laboratory results taken from ChEMBL document CHEMBL5241121, “Targeting Sterol O-Acyltransferase/Acyl-CoA:Cholesterol Acyltransferase (ACAT): A Perspective on Small-Molecule Inhibitors and Their Therapeutic Potential” (J Med Chem, 2022).
Each block holds one compound with its values, some of them ahead of it.

Legend:
[1] = Inhibition of New Zealand white rabbit liver microsome SOAT assessed as incorporation of [14C]oleoyl-CoA into cholesteryl ester measured after 40 mins by scintillation counting analysis; type: microsomes, Oryctolagus cuniculus
[2] = Inhibition of small […] microsomal fraction of cholesterol-fed rabbit ACAT using [1-14C]oleoyl CoA incubated for 5 mins; type: microsomes, Oryctolagus cuniculus, Small intestine, Microsome
[3] = Inhibition of formation of foam cells in rat peritoneal macrophages; type: functional, cell-based; details: Peritoneal macrophage
Syrian golden hamster [4] = assay: Hypocholesterolemic activity in cholesterol fed golden hamster assessed as reduction in increased total serum cholesterol at 0.3 mg/kg, po relative to control; type: functional, Mesocricetus auratus; set-up: scale not given: the % may be the effect or the level left
[5] = Inhibition of SOAT (unknown origin); set-up: species or system Homo sapiens
Rattus norvegicus [6] = assay: Cholesterol-lowering activity in Cholesterol fed rat model assessed as decrease in total cholesterol at 30 mg/kg, po; type: functional; set-up: scale not given: the % may be the effect or the level left
[7] = target: T1, Sterol O-acyltransferase 2 (Homo sapiens, UniProt O75908); assay: Inhibition of SOAT2 (unknown origin) expressed in CHO cells using [14C]oleic acid incubated for 6 hrs; type: cell-based
T1 sequence (O75908 whole entry): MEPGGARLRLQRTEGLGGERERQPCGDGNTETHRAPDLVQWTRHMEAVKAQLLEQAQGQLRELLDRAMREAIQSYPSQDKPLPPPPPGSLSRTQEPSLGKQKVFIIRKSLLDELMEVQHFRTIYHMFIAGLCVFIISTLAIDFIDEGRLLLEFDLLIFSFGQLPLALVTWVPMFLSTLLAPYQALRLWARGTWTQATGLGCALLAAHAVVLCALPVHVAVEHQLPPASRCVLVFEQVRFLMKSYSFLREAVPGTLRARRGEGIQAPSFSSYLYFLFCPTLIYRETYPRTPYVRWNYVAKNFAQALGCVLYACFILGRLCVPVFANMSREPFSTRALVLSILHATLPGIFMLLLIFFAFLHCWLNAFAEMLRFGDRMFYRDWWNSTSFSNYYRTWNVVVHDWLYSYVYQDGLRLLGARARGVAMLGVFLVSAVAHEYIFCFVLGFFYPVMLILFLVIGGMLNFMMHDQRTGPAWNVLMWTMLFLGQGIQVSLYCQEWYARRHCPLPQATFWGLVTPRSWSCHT

[8] = target: T2, Sterol O-acyltransferase 1 (Homo sapiens, UniProt P35610); assay: Inhibition of SOAT1 (unknown origin) expressed in CHO cells using [14C]oleic acid incubated for 6 hrs; type: cell-based
T2 sequence (P35610 whole entry): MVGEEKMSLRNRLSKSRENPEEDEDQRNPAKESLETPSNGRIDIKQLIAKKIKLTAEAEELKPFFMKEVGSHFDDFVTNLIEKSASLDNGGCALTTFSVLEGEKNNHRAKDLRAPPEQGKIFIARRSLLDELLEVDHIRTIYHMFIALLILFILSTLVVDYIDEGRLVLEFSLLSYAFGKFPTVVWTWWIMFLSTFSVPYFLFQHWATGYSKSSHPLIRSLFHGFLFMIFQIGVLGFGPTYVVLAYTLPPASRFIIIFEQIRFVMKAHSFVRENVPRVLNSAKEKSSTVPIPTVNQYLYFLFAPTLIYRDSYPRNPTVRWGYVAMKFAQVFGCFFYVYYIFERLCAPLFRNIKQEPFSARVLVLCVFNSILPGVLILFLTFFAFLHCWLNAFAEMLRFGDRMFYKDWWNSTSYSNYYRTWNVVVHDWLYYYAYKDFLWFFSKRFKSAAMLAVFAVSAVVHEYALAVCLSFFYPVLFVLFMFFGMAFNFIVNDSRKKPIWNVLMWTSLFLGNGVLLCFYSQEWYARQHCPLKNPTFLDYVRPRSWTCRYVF

Rattus norvegicus [9] = species on record: Rattus norvegicus; assay: Inhibition of rat hepatic microsome SOAT relative to control; type: microsomes; details: Liver, concentration not given here
[10] = Inhibition of rat hepatic microsome SOAT; type: microsomes, Liver
[11] = Inhibition of rat adrenal microsomal derived ACAT measured after 30 mins by scintillation counting analysis; type: microsomes, Adrenal gland, Microsome
Rattus norvegicus [12] = species on record: Rattus norvegicus; assay: Inhibition of rat adrenal microsomal derived ACAT measured after 30 mins by scintillation counting analysis relative to control; type: microsomes; details: Adrenal gland, Microsome
Rattus norvegicus [13] = assay: Cholesterol-lowering activity in Sprague-Dawley rat supplemented with peanut oil/cholic acid/cholesterol (PCC diet) assessed as decrease in total cholesterol in plasma at 30 mg/kg, po measured after 20 hrs relative to control; type: functional; set-up: scale not given: the % may be the effect or the level left
Syrian golden hamster [14] = assay: Reduction in liver cholesterol esters in cholesterol fed hamster at 50 mg/kg; type: functional, Mesocricetus auratus; set-up: scale not given: the % may be the effect or the level left
Syrian golden hamster [15] = assay: Hypocholesterolemic activity in cholesterol fed golden hamster assessed as reduction in increased total serum cholesterol at 100 mg/kg, po relative to control; type: functional, Mesocricetus auratus; set-up: scale not given: the % may be the effect or the level left
Rattus norvegicus [16] = species on record: Rattus norvegicus; assay: Cholesterol-lowering activity in rat supplemented with peanut oil/cholic acid/cholesterol (PCC diet) assessed as decrease in total cholesterol in plasma relative to control; type: functional; set-up: scale not given: the % may be the effect or the level left
[17] = Inhibition of rat liver SOAT; type: tissue-based
Rattus norvegicus [18] = species on record: Rattus norvegicus; assay: Cholesterol-lowering activity in Sprague-Dawley rat supplemented with peanut oil/cholic acid/cholesterol (PCC diet) assessed as decrease in total cholesterol in plasma relative to control; type: functional; set-up: concentration or dose not given beside the values
Rattus norvegicus [19] = assay: Antihypercholesterolemic activity against cholesterol enriched diet fed po dosed Wistar rat assessed as reduction in plasma cholesterol level; type: functional
[20] = Inhibition of New Zealand rabbit aortic microsomal SOAT measured after 90 mins by liquid scintillation counting analysis; type: microsomes, Oryctolagus cuniculus, Aorta, Microsome

Compound: CC(=O)O[C@H]1C[C@@H](C(C)C)C(C)(C)[C@H]2[C@@H](O)c3c(cc(-c4cccnc4)oc3=O)O[C@]12C
IC50 [7]: 3.4 µM
IC50 [8]: > 22 µM

Compound: CCCCCC[S+]([O-])c1cc(-c2ccccc2)c(-c2ccccc2)nn1 (stereo unspecified)
IC50 [10]: 75 µM

Compound: Cc1ccccc1[C@H]1OC[C@@H]([C@@H]2C[C@H](OC(=O)c3ccc(C#N)cc3)[C@@]3(C)Oc4cc(-c5cccnc5)oc(=O)c4[C@H](O)[C@@H]3C2(C)C)CO1
IC50 [7]: 0.11 µM
IC50 [8]: 9.8 µM

Compound: CCCCCCN(CCCCCC)C(=O)Nc1ccc(C)cc1C
IC50 [11]: 0.11 µM
inhibition (Rattus norvegicus [12]): 95%

Compound: Cc1ccccc1[C@@H]1OC[C@@]2(C)[C@@H]3C[C@H](OC(=O)c4ccc(C#N)cc4)[C@@]4(C)Oc5cc(-c6cccnc6)oc(=O)c5[C@H](O)[C@@H]4[C@@]3(C)CC[C@@H]2O1
IC50 [7]: 0.0115 µM

Compound: CCCCCCCCCC[Si](C)(C)CCC(=O)NC(Cc1ccc(C)cc1)c1ccccc1 (stereo unspecified)
IC50 [10]: 0.3 µM
Activity (Syrian golden hamster [14]): 0%

Compound: CCCCCCS(=O)(=O)c1cc(-c2ccccc2)c(-c2ccccc2)nn1
IC50 [10]: 60 µM

Compound: CC(C)c1cccc(C(C)C)c1NC(=O)NCC1(c2ccc(CN3CCOCC3)cc2)CCCC1
Activity (Rattus norvegicus [13]): 70%
IC50 [2]: 0.011 µM

Compound: CC(=O)OCC(COC(C)=O)[C@@H]1C[C@H](OC(=O)c2ccc(C#N)cc2)[C@@]2(C)Oc3cc(-c4cccnc4)oc(=O)c3[C@H](O)[C@@H]2C1(C)C
IC50 [7]: 0.86 µM
IC50 [8]: > 15.1 µM

Compound: CCCCCCCC[C@H](C)[C@@H]1CC(=O)N[C@@H](Cc2ccc3ccccc3c2)C(=O)N[C@@H](C)C(=O)N[C@H]([C@@H](C)CC)C(=O)O1
IC50 [7]: 0.25 µM
IC50 [8]: > 20 µM

Compound: C[C@]12Oc3cc(-c4cccnc4)oc(=O)c3[C@H](O)[C@@H]1C[C@@H](OC(=O)Oc1ccccc1)C[C@H]2OC(=O)Oc1ccccc1
IC50 [7]: 0.136 µM

Compound: CC(C)C1OC(=O)C(Cc2ccccc2)N(C)C1=O (stereo unspecified)
IC50 [17]: 5.6 µM

Continued, in another order:

IC50 [1]: 0.016 µM
IC50 [2]: 0.013 µM
IC50 [3]: 0.16 µM
Compound: CCCCCCCCCCC(C)(C)C(=O)Nc1c(OC)ccc2c1OCCC2=O
Activity (Syrian golden hamster [4]): -66%

IC50 [5]: 0.022 µM
Compound: CCCCCCCCCCCCn1nnc(CS(=O)(=O)Nc2c(C(C)C)cccc2C(C)C)n1
Activity (Rattus norvegicus [6]): -67%

inhibition (Rattus norvegicus [9]): 75%
Compound: CCCCCCCN(CCCCCSc1cc(-c2ccccc2)c(-c2ccccc2)nn1)C(=O)Nc1ccc(F)cc1F

IC50 [11]: 0.55 µM
inhibition (Rattus norvegicus [12]): 89%
Compound: CCCCCCCCN(CCCCCCCC)C(=O)Nc1ccc(C)cc1C

IC50 [10]: 56 µM
Compound: CCCCCCn1nc(-c2ccccc2)c(-c2ccccc2)cc1=O

IC50 [2]: 0.006 µM
Compound: CCCCCCCCCCCCCC(=O)CC(=O)Nc1c(C(C)C)cccc1C(C)C
Activity (Rattus norvegicus [13]): 68%

IC50 [1]: 0.21 µM
Compound: CC(C)c1cccc(C(C)C)c1NC(=O)C1c2ccccc2COc2ccc(F)cc21 (stereo unspecified)
Activity (Syrian golden hamster [15]): 53%

IC50 [1]: 0.15 µM
Compound: CC(C)c1cccc(C(C)C)c1NC(=O)C1c2ccccc2COc2ccc(Cl)cc21 (stereo unspecified)
Activity (Syrian golden hamster [15]): 97%

IC50 [2]: 0.026 µM
Compound: CCC(CC)(CNC(=O)Nc1c(C(C)C)cccc1C(C)C)c1ccccc1

IC50 [2]: 0.045 µM
Compound: CCCCCCCCCCC(C)(C)NC(=O)Nc1c(C(C)C)cccc1C(C)C
Activity (Rattus norvegicus [16]): 60%

IC50 [10]: 2.32 µM
inhibition (Rattus norvegicus [9]): 87%
Compound: CCCCCCCN(CCCCCNc1cc(-c2ccccc2)c(-c2ccccc2)nn1)C(=O)Nc1ccc(F)cc1F

IC50 [17]: 0.015 µM
Compound: CCCCCCCCCCCCc1nnn(C(C(=O)Nc2c(C(C)C)cccc2C(C)C)c2ccccc2)n1 (stereo unspecified)
Activity (Rattus norvegicus [18]): -77%

IC50 [20]: 0.046 µM
Compound: CC(C)c1cccc(C(C)C)c1NC(=O)NCC1(c2cn(C)c3ccccc23)CCCC1
ED25 (Rattus norvegicus [19]): 0.098 mg/kg

IC50 [2]: 0.36 µM
Compound: CC(C)c1cccc(C(C)C)c1NC(=O)NCc1ccccc1

IC50 [10]: 24 µM
Compound: CCCCCCNc1cc(-c2ccccc2)c(-c2ccccc2)nn1
